Values joined by “and” are separate entries in the source; they are usually repeats but may differ in a detail not shown here. Identical values can stand only once.
Assays:
[1] = wn = mass fraction of the nth substance listed; conditions: 101 kPa, Liquid; for electrical conductivity: Alternating current cell with electrodes; for kinematic viscosity: Capillary tube (Ostwald / Ubbelohde) method; for speed of sound: Pulse-echo method; for mass density: Vibrating tube method
[2] = 101.33 kPa, Liquid; for viscosity: Stabinger Viscometer; for mass density: Vibrating tube method; for speed of sound: DSA 5000; for electrical conductivity: Alternating current cell with electrodes

CCCCCC[n+]1ccn(C)c1.O=S(=O)([N-]S(=O)(=O)C(F)(F)F)C(F)(F)F + O
[1]
Conditions | electrical conductivity [S/m] | kinematic viscosity [m2/s] | mass density [kg/m3] | speed of sound [m/s]
288.15 K, w2 = 1e-05 | 0.135 | – | – | –
288.15 K, w2 = 0.00094 | 0.142 | – | – | –
293.15 K, w2 = 1e-05 | 0.173 | – | – | –
293.15 K, w2 = 2e-05 | – | 6.53e-05 | – | –
293.15 K, w2 = 0.00094 | 0.18 | – | – | –
293.15 K, w2 = 0.0011 | – | 6.16e-05 | – | –
293.15 K, w2 = 0.00727 | 0.232 | – | – | –
293.15 K, w2 = 0.00784 | 0.237 | – | – | –
293.15 K, w2 = 0.0082 | – | 4.55e-05 | – | –
293.15 K, w2 = 0.00898 | 0.246 | – | – | –
298.15 K, w2 = 1e-05 | 0.218 | 5.12e-05 | – | –
298.15 K, w2 = 2e-05 | – | 5.13e-05 | – | –
298.15 K, w2 = 3.5e-05 | – | – | 1372.07 | 1226.6
298.15 K, w2 = 0.00094 | 0.227 | – | – | –
298.15 K, w2 = 0.00102 | – | – | 1370.45 | –
298.15 K, w2 = 0.00106 | – | – | – | 1227.4
298.15 K, w2 = 0.00112 | – | 4.85e-05 | – | –
298.15 K, w2 = 0.00722 | – | – | 1367.04 | –
298.15 K, w2 = 0.00727 | 0.289 | – | – | –
298.15 K, w2 = 0.007315 | – | – | – | 1230.3
298.15 K, w2 = 0.00784 | 0.295 | – | – | –
298.15 K, w2 = 0.00819 | – | 3.63e-05 | – | –
298.15 K, w2 = 0.00898 | 0.306 | – | – | –
308.15 K, w2 = 1e-05 | 0.328 | – | – | –
308.15 K, w2 = 0.00094 | 0.34 | – | – | –
323.15 K, w2 = 1e-05 | 0.548 | – | – | –
323.15 K, w2 = 0.00094 | 0.566 | – | – | –

CCCCCC[n+]1ccn(C)c1.O=S(=O)([N-]S(=O)(=O)C(F)(F)F)C(F)(F)F
[2]
Conditions | electrical conductivity [S/m] | mass density | speed of sound | viscosity
258.15 K | – | 1407.6 kg/m3 | – | 941.8 mPa·s
263.15 K | – | 1403.1 kg/m3 | – | 612.7 mPa·s
268.15 K | – | 1398.5 kg/m3 | – | 417.4 mPa·s
273.15 K | – | 1394 kg/m3 | – | 291.2 mPa·s
278.15 K | – | 1389.5 kg/m3 | – | 207.6 mPa·s
283.15 K | – | 1385 kg/m3 and 1385.9 kg/m3 and 1386 kg/m3 | 1262 m/s and 1262.4 m/s | 153.3 mPa·s
288.15 K | 0.135 | 1380.5 kg/m3 | – | 115.8 mPa·s
293.15 K | 0.173 | 1376.7 kg/m3 [middle of 4 runs] | 1238.4 m/s and 1238.5 m/s | 89.54 mPa·s and 89.26 mPa·s
298.15 K | 0.218 | 1372.1 kg/m3 [middle of 4 runs] | 1226.8 m/s and 1226.9 m/s | 70.09 mPa·s and 70.29 mPa·s
303.15 K | – | 1367.3 kg/m3 and 1367.5 kg/m3 and 1367.6 kg/m3 | 1215.5 m/s and 1215.6 m/s | 56.11 mPa·s
308.15 K | 0.328 | – | – | –
313.15 K | – | 1358.3 kg/m3 and 1358.4 kg/m3 | 1193.3 m/s and 1193.4 m/s | 37.41 mPa·s
323.15 K | 0.548 | 1349.3 kg/m3 and 1349.4 kg/m3 | 1171.5 m/s and 1171.6 m/s | 26.25 mPa·s
333.15 K | – | 1340.3 kg/m3 and 1340.4 kg/m3 | 1149.8 m/s and 1150.4 m/s | 19.22 mPa·s
343.15 K | – | 1331.3 kg/m3 and 1331.4 kg/m3 | 1128.4 m/s and 1129.6 m/s | 14.58 mPa·s
353.15 K | – | 1322.5 kg/m3 | – | 11.38 mPa·s
363.15 K | – | 1313.6 kg/m3 | – | 9.128 mPa·s
373.15 K | – | 1304.8 kg/m3 | – | 7.463 mPa·s
